Measured values from US8889743B2 (priority 2007, dated 2014).

Tests used:
VSV GP pseudotype = format: cell-based, Vesicular stomatitis virus
[1] = test system: Ebola virus GP pseudotype; format: cell-based
[2] = test system: Ebola virus pseudotyped VSV particles; format: cell-based
[3] = test system: EBOV pseudotyped lentivirus; test: microbe, parasite or virus in culture; format: cell-based, EBOV Zaire strain
[4] = test system: retrovirus pseudotypes bearing eMLV (Fr-MLV) env; format: cell-based, ecotropic murine leukemia virus
[5] = test system: retrovirus pseudotypes bearing Ebola virus env; format: cell-based
[6] = test system: Venezuelan equine encephalitis virus (VEEV) pseudotyped VSV particles; format: cell-based
[7] = test system: wild type Ebola virus, Zaire strain; format: cell-based; settings: 7 days
[8] = test system: live Ebola virus (Zaire strain); format: cell-based; settings: 10 days

## CCN(CC)CCCC(C)Nc1nc(C)cc(Nc2ccc3nc(C)cc(N)c3c2)n1 (racemic) [Rac1 inhibitor]
VSV GP pseudotype
  entry of VSV GP pseudotype (luciferase activity): unaffected
[1]
  entry of Ebola virus GP pseudotype (luciferase activity): inhibits Ebola virus entry

## COc1ccc([C@@H]2Sc3ccccc3N(CCN(C)C)C(=O)[C@@H]2OC(C)=O)cc1 [Diltiazem]
[2]
  infection by virus-like particles bearing Ebola virus env (GFP-expressing cells): potent and specific blockers

## COc1ccc(S(=O)(=O)Nc2ccccc2CN(C)C/C=C/c2ccc(Cl)cc2)cc1 [KN-92]
[2]
  infection of the VSV core EBOV pseudotyped virus: not
[3]
  reduction in infection by the pseudotyped virus: ~50%

## COc1ccc(S(=O)(=O)N(CCO)c2ccccc2CN(C)C/C=C/c2ccc(Cl)cc2)cc1 [KN-93]
[2]
  infection of the VSV core EBOV pseudotyped virus: significantly impacted
[2]; 10 μM
  infection with Ebola virus pseudotyped VSV particles: specifically blocked infection
[4]
  infection by retrovirus pseudotype bearing eMLV env (luciferase activity): blocking only the Ebola infection
[5]
  infection by retrovirus pseudotype bearing Ebola virus env (luciferase activity): strong effect

## O=c1cc(N2CCOCC2)oc2c(-c3ccccc3)cccc12 [LY294002]
[3]; Zaire ebolavirus, HEK293, read-out: IC50 value for infection of EBOV pseudotyped lentivirus
  IC50: 6.5 ± 1.1 µM

## COCCOC(=O)C1=C(C)NC(C)=C(C(=O)OC(C)C)C1c1cccc([N+](=O)[O-])c1 (stereo not shown) [Nimodopine]
[2]
  Ebola virus-like particle infection/entry, calmodulin inhibitors and L-channel blocking drugs: effective

## CC(COc1ccccc1)N(CCCl)Cc1ccccc1 (stereo not shown) [Phenoxybenzamine]
[2]
  Ebola virus-like particle infection/entry, calmodulin inhibitors and L-channel blocking drugs: inhibited
[6]
  Venezuelan equine encephalitis virus-like particle infection: not

## COc1ccc2cc1Oc1ccc(cc1)C[C@H]1c3cc(c(OC)cc3CCN1C)Oc1c(OC)c(OC)cc3c1[C@H](C2)N(C)CC3 [Tetrandine]
[2]
  infection by virus-like particles bearing Ebola virus env (GFP-expressing cells): potent and specific blockers

## CN1CCN(CCCN2c3ccccc3Sc3ccc(C(F)(F)F)cc32)CC1 [Trifluorperazine]
[2]
  Ebola virus-like particle infection/entry, calmodulin inhibitors and L-channel blocking drugs: inhibited
[6]
  Venezuelan equine encephalitis virus-like particle infection: not

## N#CC(=C(/N)Sc1ccccc1N)/C(C#N)=C(\N)Sc1ccccc1N [U0126]
[1]
  entry of Ebola virus GP pseudotype (luciferase activity): not

## COc1ccc(CCN(C)CCCC(C#N)(c2ccc(OC)c(OC)c2)C(C)C)cc1OC (stereo not shown) [Verapamil]
[2]
  Ebola virus-like particle infection/entry, calmodulin inhibitors and L-channel blocking drugs: highly effective
[7]
  Ebola virus induced cytopathic effect: reduced or significantly prevented

## NCCCCCCNS(=O)(=O)c1cccc2c(Cl)cccc12 [W7]
[2]
  Ebola virus-like particle infection/entry, calmodulin inhibitors and L-channel blocking drugs: inhibited
[6]
  Venezuelan equine encephalitis virus-like particle infection: not

## Cl.N [ammonium chloride]
[1]
  entry of Ebola virus GP pseudotype (luciferase activity), assay validation: sensitive

## CO/C1=C\C(C)=C\[C@@H](C)[C@@H](O)[C@@H](C)C/C(C)=C/C=C/[C@H](OC)[C@@H]([C@@H](C)[C@@H](O)[C@H](C)[C@@]2(O)C[C@@H](O)[C@H](C)[C@@H](C(C)C)O2)OC1=O [bafilomycin A1]
[1]
  entry of Ebola virus GP pseudotype (luciferase activity), assay validation: sensitive

## Methoxyverapamil
[2]
  Ebola virus-like particle infection/entry, calmodulin inhibitors and L-channel blocking drugs: highly effective
[8]
  infection of live Ebola Zaire virus (plaque numbers normalized to DMSO): inhibition of infection
